For the assay, the target named is S1P1/EDG1 (Homo sapiens, UniProt P21453). Put plainly: S1P1 CRE-bla CHOK1 reporter assay, inhibition of Forskolin induced cAMP. Format: cell-based. The following applies: agonist activity range; S1P1 CRE-bla CHOK1 cells, 2 μM Forskolin; read-out: S1P1 ACTIVITY
As for the experimental part: Generation of S1P1-Mediated Inhibition of cAMP Reporter Assay
A mammalian expression plasmid containing S1P1/EDG1 cloned into pcDNA3.1 was purchased from Missouri S&T cDNA Resource Centre. […] S1P1/pcDNA3.1 was transfected into the CRE-bla CHO K1 (Invitrogen) cell line, and stable single cell clones were selected using standard techniques.
S1P1 CRE-Bla CHOK1 Reporter Assay—Characterization of S1P1 Agonists
Cells were seeded into 384-well black wall/clear bottom plates at 10^4 cells/well/19.5 μl assay media (DMEM-phenol free, 0.5% charcoal/dextran stripped serum, 2 mM glutamine, 0.1 mM NEAA, 1 mM Na-Pyruvate, 25 mM Hepes) and incubated for 18 hrs at 37° C. in 5% CO2. Dose response curves (10-point) were generated in 10 mM Hepes, 0.1% Pluronic F127, in the presence of Forskolin. Cells were treated with 0.5 μl compound in the presence of 2 μM Forskolin for 4 hrs at 37° C. The FRET-based β-lactamase fluorescent substrate (LiveBLAzer™-FRET B/G Loading Kit CC4-AM; Invitrogen) was prepared according to manufacturer's directions, and incubated with cells for 2 hrs at room temperature.

Where a name gives a salt, the structure may show the parent alone.

Sequence of S1P1/EDG1 (P21453 whole entry): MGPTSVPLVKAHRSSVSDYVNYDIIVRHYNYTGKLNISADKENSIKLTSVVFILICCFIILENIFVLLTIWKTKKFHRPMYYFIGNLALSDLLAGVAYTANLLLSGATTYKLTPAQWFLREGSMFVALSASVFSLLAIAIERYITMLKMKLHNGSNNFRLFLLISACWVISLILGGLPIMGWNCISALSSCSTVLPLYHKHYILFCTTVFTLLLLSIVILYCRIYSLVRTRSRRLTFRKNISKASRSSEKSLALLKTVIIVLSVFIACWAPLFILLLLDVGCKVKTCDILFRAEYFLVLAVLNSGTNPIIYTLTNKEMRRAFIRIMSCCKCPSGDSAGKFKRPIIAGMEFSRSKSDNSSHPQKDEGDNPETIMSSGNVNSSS

`CC(C)Oc1ccc(-c2ncc(-c3cccc4c3CC[C@H]4NS(C)(=O)=O)s2)cc1C#N` [Compound 111, (R)—N-(4-(2-(3-cyano-4-isopropoxyphenyl)thiazol-5-yl)-2,3-dihydro-1H-inden-1-yl)methanesulfonamide]: the EC50 was 0.05 to 0.5 nM. For `CCS(=O)(=O)N[C@@H]1CCc2c(-c3cnc(-c4ccc(OC(C)C)c(C#N)c4)s3)cccc21` [Compound 113] the value was 0.05 to 0.5 nM; for `COCCS(=O)(=O)N[C@@H]1CCc2c(-c3cnc(-c4ccc(OC(C)C)c(C#N)c4)s3)cccc21` [Compound 116], 0.5 to 5 nM; for `CC(C)Oc1ccc(-c2ncc(-c3cccc4c3CC[C@H]4NS(=O)(=O)C3CC3)s2)cc1C#N` [Compound 117], 0.05 to 0.5 nM. In the case of `CC(C)Oc1ccc(-c2ncc(-c3cccc4c3CC[C@H]4NS(=O)(=O)Cc3ccccc3)s2)cc1C#N` [Compound 120] it was 0.5 to 5 nM; in that of `CC(C)Oc1ccc(-c2ncc(-c3cccc4c3CC[C@H]4NS(=O)(=O)CCN3CCOCC3)s2)cc1C#N` [Compound 121], 0.5 to 5 nM; in that of `CC(C)Oc1ccc(-c2ncc(-c3cccc4c3CC[C@H]4NS(=O)(=O)CCN(C)C)s2)cc1C#N` [Compound 123], 0.5 to 5 nM. For `CNCCS(=O)(=O)N[C@@H]1CCc2c(-c3cnc(-c4ccc(OC(C)C)c(C#N)c4)s3)cccc21` [Compound 126] the value was 0.5 to 5 nM; for `CC(C)Oc1ccc(-c2ncc(-c3cccc4c3CC[C@H]4NS(=O)(=O)CCN3CCC3)s2)cc1C#N` [Compound 127], 0.5 to 5 nM; for `CC(C)Oc1ccc(-c2ncc(-c3cccc4c3CC[C@H]4NS(=O)(=O)CCN3CCCC3)s2)cc1C#N` [Compound 130], 0.5 to 5 nM. In the case of `CC(C)Oc1ccc(-c2ncc(-c3cccc4c3CC[C@@H]4NS(=O)(=O)CCN3CC[C@@H](O)C3)s2)cc1C#N` [Compound 131], the EC50 is 0.5 to 5 nM.

In the case of `CC(C)Oc1ccc(-c2ncc(-c3cccc4c3CC[C@H]4NS(=O)(=O)CCN3CC[C@@H](O)C3)s2)cc1C#N` [Compound 133], the EC50 fell in the range of 0.5 to 5 nM. On to `CC(C)Oc1ccc(-c2ncc(-c3cccc4c3CC[C@H]4NS(=O)(=O)CCN3CC[C@H](O)C3)s2)cc1C#N` [Compound 134], for which the EC50 fell in the range of 0.5 to 5 nM. For `CC(C)Oc1ccc(-c2ncc(-c3cccc4c3CC[C@H]4NS(=O)(=O)CCN3CC[C@@H](N)C3)s2)cc1C#N` [Compound 135] the value was over 5 nM. In the case of `CC(C)Oc1ccc(-c2ncc(-c3cccc4c3CC[C@H]4NS(=O)(=O)CCN3CC[C@H](N)C3)s2)cc1C#N` [Compound 136] it was over 5 nM; in that of `CC(C)Oc1ccc(-c2ncc(-c3cccc4c3CC[C@H]4NS(=O)(=O)CCN3CCCCC3)s2)cc1C#N` [Compound 140], over 5 nM; in that of `CC(C)Oc1ccc(-c2ncc(-c3cccc4c3CC[C@@H]4NS(=O)(=O)CCN3CCC[C@@H](O)C3)s2)cc1C#N` [Compound 141, N—((S)-4-(2-(3-cyano-4-isopropoxyphenyl)thiazol-5-yl)-2,3-dihydro-1H-inden-1-yl)-2-((R)-3-hydroxypiperidin-1-yl)ethanesulfonamide], 0.5 to 5 nM. In the case of `CC(C)Oc1ccc(-c2ncc(-c3cccc4c3CC[C@H]4NS(=O)(=O)CCN3CCC[C@@H](O)C3)s2)cc1C#N` [Compound 143, N—((R)-4-(2-(3-cyano-4-isopropoxyphenyl)thiazol-5-yl)-2,3-dihydro-1H-inden-1-yl)-2-((R)-3-hydroxypiperidin-1-yl)ethanesulfonamide] it was 0.5 to 5 nM; in that of `CC(C)Oc1ccc(-c2ncc(-c3cccc4c3CC[C@H]4NS(=O)(=O)CCN3CCC[C@H](O)C3)s2)cc1C#N` [Compound 144], 0.5 to 5 nM.

As to `CC(C)Oc1ccc(-c2ncc(-c3cccc4c3CC[C@H]4NS(=O)(=O)CCN3CCC(O)CC3)s2)cc1C#N` [Compound 146], the EC50 lay in the range of 0.5 to 5 nM. For `CC(C)Oc1ccc(-c2ncc(-c3cccc4c3CC[C@H]4NS(=O)(=O)CCN3CCNCC3)s2)cc1C#N` [Compound 151] the value was over 5 nM; for `COC(=O)CS(=O)(=O)N[C@@H]1CCc2c(-c3cnc(-c4ccc(OC(C)C)c(C#N)c4)s3)cccc21` [Compound 154, (R)-methyl 2-(N-(4-(2-(3-cyano-4-isopropoxyphenyl)thiazol-5-yl)-2,3-dihydro-1H-inden-1-yl)sulfamoyl)acetate], 0.05 to 0.5 nM. In the case of `COC(=O)CCS(=O)(=O)N[C@@H]1CCc2c(-c3cnc(-c4ccc(OC(C)C)c(C#N)c4)s3)cccc21` [Compound 156] it was 0.05 to 0.5 nM; in that of `CC(C)Oc1ccc(-c2ncc(-c3cccc4c3CC[C@H]4NS(=O)(=O)CC(=O)O)s2)cc1C#N` [Compound 158, (R)-2-(N-(4-(2-(3-cyano-4-isopropoxyphenyl)thiazol-5-yl)-2,3-dihydro-1H-inden-1-yl)sulfamoyl)acetic acid], under 0.05 nM. For `CC(C)Oc1ccc(-c2ncc(-c3cccc4c3CC[C@H]4NS(=O)(=O)CCC(=O)O)s2)cc1C#N` [Compound 160] the value was under 0.05 nM; for `CC(C)Oc1ccc(-c2ncc(-c3cccc4c3CC[C@H]4NS(=O)(=O)CCO)s2)cc1C#N` [Compound 164, (R)—N-(4-(2-(3-cyano-4-isopropoxyphenyl)thiazol-5-yl)-2,3-dihydro-1H-inden-1-yl)-2-hydroxyethanesulfonamide], 0.05 to 0.5 nM. As for `CC(C)Oc1ccc(-c2ncc(-c3cccc4c3CC[C@H]4NC(=O)N(C)C)s2)cc1C#N` [Compound 168], the EC50 was 0.05 to 0.5 nM.

Consider `CC(C)Oc1ccc(-c2ncc(-c3cccc4c3CC[C@H]4NC(=O)N3CC(O)C3)s2)cc1C#N` [Compound 171], for which the EC50 lay within 0.05 to 0.5 nM. As to `CC(C)Oc1ccc(-c2ncc(-c3cccc4c3CC[C@H]4NC(=O)N3CC[C@@H](O)C3)s2)cc1C#N` [Compound 174], the EC50 lay in the range of 0.05 to 0.5 nM. In the case of `CC(C)Oc1ccc(-c2ncc(-c3cccc4c3CC[C@H]4NC(=O)N3CC[C@H](O)C3)s2)cc1C#N` [Compound 177] it was 0.05 to 0.5 nM. In the case of `CC(C)Oc1ccc(-c2ncc(-c3cccc4c3CC[C@H]4NC(=O)N3CC[C@@H](N)C3)s2)cc1C#N` [Compound 178] it was 0.05 to 0.5 nM; in that of `CC(C)Oc1ccc(-c2ncc(-c3cccc4c3CC[C@H]4NC(=O)N3CC[C@H](N)C3)s2)cc1C#N` [Compound 179], 0.5 to 5 nM; in that of `CC(C)Oc1ccc(-c2ncc(-c3cccc4c3CC[C@H]4NC(=O)N3CC[C@H](N(C)C)C3)s2)cc1C#N` [Compound 182], 0.5 to 5 nM. `CC(C)Oc1ccc(-c2ncc(-c3cccc4c3CC[C@H]4NC(=O)N3CC[C@@H](N(C)C)C3)s2)cc1C#N` [Compound 183]: the EC50 lay within 0.5 to 5 nM. For `CC(C)Oc1ccc(-c2ncc(-c3cccc4c3CC[C@H]4NC(=O)N3CCNCC3)s2)cc1C#N` [Compound 188] the value was 0.5 to 5 nM. For `CC(C)Oc1ccc(-c2ncc(-c3cccc4c3CC[C@H]4NC(=O)N3CCN(C)CC3)s2)cc1C#N` [Compound 190] the value was 0.5 to 5 nM; for `CC(C)Oc1ccc(-c2ncc(-c3cccc4c3CC[C@H]4NC(=O)N3CCC(N(C)C)CC3)s2)cc1C#N` [Compound 192], over 5 nM.

With `CC(C)Oc1ccc(-c2ncc(-c3cccc4c3CC[C@H]4NC(=O)N3CCC(CO)CC3)s2)cc1C#N` [Compound 195], the EC50 was in the range of 0.5 to 5 nM.

For the compound `CC(C)Oc1ccc(-c2ncc(-c3cccc4c3CC[C@@H]4NC(=O)N3CCC[C@@H](O)C3)s2)cc1C#N` [Compound 196], the EC50 fell in the range of 0.5 to 5 nM. For `CC(C)Oc1ccc(-c2ncc(-c3cccc4c3CC[C@H]4NC(=O)N3CCC[C@H](O)C3)s2)cc1C#N` [Compound 197] the value was 0.5 to 5 nM; for `CC(C)Oc1ccc(-c2ncc(-c3cccc4c3CC[C@H]4NC(=O)N3CCC[C@@H](O)C3)s2)cc1C#N` [Compound 198], 0.05 to 0.5 nM.

As to `CC(C)Oc1ccc(-c2ncc(-c3cccc4c3CC[C@H]4NC(=O)N3CCC[C@H](O)C3)s2)cc1C#N` [Compound 199], the EC50 lay in the range of 0.05 to 0.5 nM. For `CC(C)Oc1ccc(-c2ncc(-c3cccc4c3CC[C@H]4NC(=O)N3CCC(CC(=O)O)CC3)s2)cc1C#N` [Compound 200] the value was 0.05 to 0.5 nM; for `CC(C)Oc1ccc(-c2ncc(-c3cccc4c3CC[C@H]4NC(=O)N3CCC(O)CC3)s2)cc1C#N` [Compound 202], 0.5 to 5 nM. Turning to `COC(=O)CC1CCN(C(=O)N[C@@H]2CCc3c(-c4cnc(-c5ccc(OC(C)C)c(C#N)c5)s4)cccc32)CC1` [Compound 204], the EC50 was 0.5 to 5 nM. In the case of `CC(C)Oc1ccc(-c2ncc(-c3cccc4c3CC[C@H]4NCCS(C)(=O)=O)s2)cc1C#N` [Compound 220, (R)-2-isopropoxy-5-(5-(1-((2-(methylsulfonyl)ethyl)amino)-2,3-dihydro-1H-inden-4-yl)thiazol-2-yl)benzonitrile] it was 0.05 to 0.5 nM; in that of `CC(C)Oc1ccc(-c2nnc(-c3cccc4c3CCC[C@H]4N)s2)cc1C#N` [Compound 228, (R)-5-(5-(5-amino-5,6,7,8-tetrahydronaphthalen-1-yl)-1,3,4-thiadiazol-2-yl)-2-isopropoxybenzonitrile hydrochloride], 0.5 to 5 nM.

Take `CC(C)Oc1ccc(-c2nnc(-c3cccc4c3CCC[C@@H]4N)s2)cc1C#N` [Compound 229, (S)-5-(5-(5-amino-5,6,7,8-tetrahydronaphthalen-1-yl)-1,3,4-thiadiazol-2-yl)-2-isopropoxybenzonitrile hydrochloride]: the EC50 was 0.5 to 5 nM.

These data come from patent publication US9481659B2, “Selective heterocyclic sphingosine 1 phosphate receptor modulators” (Celgene International II SÀRL, priority 2011, dated 2016).
